Assay results reported in PMC8092108, “Mycophenolate suppresses inflammation by inhibiting prostaglandin synthases: a study of molecular and experimental drug repurposing” (PeerJ, 2021).
pIC50: −log10 of the molar value. Values joined by “and” are separate entries in the source; they are usually repeats but may differ in a detail not shown here. Equal values may be shown once. Read-outs that look alike come from different tables or passages of the source. Each block holds one molecule with its values, some of them ahead of it.

Tests used:
COX-1 = molecular target: T1, COX-1 (Ovis aries, UniProt P05979); assay: COX inhibitor screening assay, COX-1; format: biochemical
T1 construct: purchased
T1 sequence (P05979 25-600): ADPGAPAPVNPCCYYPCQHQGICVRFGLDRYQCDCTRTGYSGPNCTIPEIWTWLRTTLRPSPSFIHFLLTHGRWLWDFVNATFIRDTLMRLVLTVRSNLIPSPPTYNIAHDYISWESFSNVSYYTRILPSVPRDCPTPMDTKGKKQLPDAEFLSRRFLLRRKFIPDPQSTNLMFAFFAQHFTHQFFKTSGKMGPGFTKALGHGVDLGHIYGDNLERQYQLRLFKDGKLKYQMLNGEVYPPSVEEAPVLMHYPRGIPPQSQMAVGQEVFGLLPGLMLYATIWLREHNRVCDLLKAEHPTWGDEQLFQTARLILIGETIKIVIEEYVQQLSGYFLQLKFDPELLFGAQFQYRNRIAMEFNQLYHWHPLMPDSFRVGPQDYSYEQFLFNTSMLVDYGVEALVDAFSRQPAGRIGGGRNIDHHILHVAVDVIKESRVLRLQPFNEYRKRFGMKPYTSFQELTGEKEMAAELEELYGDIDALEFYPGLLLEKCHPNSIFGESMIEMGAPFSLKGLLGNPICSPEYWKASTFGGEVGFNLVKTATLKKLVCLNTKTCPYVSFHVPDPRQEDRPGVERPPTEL
Method: (§1) The inhibitory effects of the drugs MMF and MPA on COX-1 and COX-2 were measured using the COX inhibitor screening assay kit and LOX inhibitor screening kit. […] Briefly, the reaction buffer (Tris–HCl buffer, pH 8.0) containing 5 mM EDTA, 2 mM phenol, and 1 µM hematin was measured into test tubes. The test drugs were dissolved in dimethyl sulfoxide and added to the tubes to final concentrations of […]. COX-1 or COX-2 was added to the test tubes and preincubated for 10 min at 37 °C. Arachidonic acid was then added, and the tubes were incubated for 2 min at 37 °C. The enzyme immunoassay was used to measure the concentration of the product prostaglandin F2α (PGF2α). The estimated values were determined after comparison to the predetermined standard curve. The IC50 was determined after three different experiments. The selectivity index was calculated from Eq. (1):
(§2) (1) Selectivity index=IC50COX−1/IC50COX−2

COX-2 = molecular target: T2, COX-2 (Homo sapiens, UniProt P35354); assay: COX inhibitor screening assay, COX-2; format: biochemical
T2 construct: purchased
T2 sequence (P35354 18-604): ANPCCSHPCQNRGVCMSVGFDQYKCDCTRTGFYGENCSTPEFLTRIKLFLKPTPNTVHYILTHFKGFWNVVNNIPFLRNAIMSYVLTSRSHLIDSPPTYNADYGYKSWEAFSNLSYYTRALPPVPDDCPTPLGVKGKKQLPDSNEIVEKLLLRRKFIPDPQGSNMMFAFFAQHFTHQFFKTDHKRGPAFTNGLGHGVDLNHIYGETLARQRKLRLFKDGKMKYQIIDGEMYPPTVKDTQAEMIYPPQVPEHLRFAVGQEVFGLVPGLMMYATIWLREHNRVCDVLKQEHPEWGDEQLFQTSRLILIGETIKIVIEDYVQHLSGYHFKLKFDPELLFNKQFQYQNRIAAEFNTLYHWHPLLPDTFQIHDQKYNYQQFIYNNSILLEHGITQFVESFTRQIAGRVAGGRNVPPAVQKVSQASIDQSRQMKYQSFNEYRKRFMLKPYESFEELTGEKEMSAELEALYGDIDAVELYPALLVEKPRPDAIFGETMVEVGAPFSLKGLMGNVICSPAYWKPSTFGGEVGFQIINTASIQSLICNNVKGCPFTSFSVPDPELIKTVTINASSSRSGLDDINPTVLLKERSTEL
Method: as §1, §2

12-LOX = assay: LOX inhibitor screening kit; format: biochemical
Method: The inhibitory effects of the drugs MMF and MPA on COX-1 and COX-2 were measured using the COX inhibitor screening assay kit and LOX inhibitor screening kit. The assay was performed according to the manufacturer’s directions and previously described methods ([Chowdhury et al., 2008]; [Lee et al., 2004]). Briefly, the reaction buffer (Tris–HCl buffer, pH 8.0) containing 5 mM EDTA, 2 mM phenol, and 1 µM hematin was measured into test tubes. The test drugs were dissolved in dimethyl sulfoxide and added to the tubes to final concentrations of […]. COX-1 or COX-2 was added to the test tubes and preincubated for 10 min at 37 °C. Arachidonic acid was then added, and the tubes were incubated for 2 min at 37 °C. The enzyme immunoassay was used to measure the concentration of the product prostaglandin F2α (PGF2α). The estimated values were determined after comparison to the predetermined standard curve. The IC50 was determined after three different experiments. The selectivity index was calculated from Eq. (1): […]

[1] = cited from earlier work
[2] = tested on: carrageenan-induced paw edema; assay: Carrageenan-induced rat paw edema test; format: in vivo; details: for Rat paw edema after treatment: MMF 12.5–50 mg/kg, indomethacin or celecoxib 10 mg/kg oral; for Rat paw size: individual rats 1-7
Method: The in vivo assay was performed by the rat paw edema inhibition test as previously described ([Morris, 2003]; [Winter, Risley & Nuss, 1962]). Forty-nine male adult albino rats weighing […] were obtained from the Animal Breeding Center at the College of Veterinary Medicine, King Faisal University, and were randomly divided into seven groups (n = 7/group). The animal groups included the nontreated control group, carrageenan group, and five groups receiving carrageenan and treated with either indomethacin, celecoxib, or MMF at three doses (12.5, 25, and 50 mg/kg). All rats were allowed free access to food and water. All cages were kept in controlled rooms at 25 °C and exposed to a 12-h light/dark cycle. MMF and two reference drugs, indomethacin and celecoxib, were suspended in 1% NaCMC in normal saline. A 1% carrageenan solution in normal saline was injected into the subplantar area of the right hind paw of rats. One hour before injection of carrageenan, rats were given either indomethacin or celecoxib at a dose rate of 10 mg/kg or MMF at three dose levels of 12.5, 25, and 50 mg/kg by oral administration. […] The measurements were blind to avoid measurement bias. The King Faisal University Ethics Committee (approval no. KFU-REC/2020-10-11) approved all animal experiments. Since no samples were taken from rats, there were no anesthesia procedures. The size of the hind paw was only measured in non-anesthetized rats. At the end of the experiment, all rats were euthanized according to the regulations of the King Faisal University Ethics Committee by an overdose of pentobarbital (200 mg/kg IP) and decapitation. The effect of MMF at different doses on relieving rat paw edema was compared with the control and standard NSAID-treated groups. Significant differences were determined by one-way analysis of variance (ANOVA) with Tukey’s post hoc test. All steps were implemented using GraphPad prism software (GraphPad Software, La Jolla, CA, USA).

- pIC50 (COX-1): 5.34
- pIC50 (COX-2): 6.85
- Selectivity index (COX-2; IC50 COX-1/IC50 COX-2): 33.00
- pIC50 (12-LOX; printed as 5-LOX in abstract and b38, read-out: IC50 5-LOX): 5.35
- pIC50 (12-LOX; read-out: IC50 12-LOX): 5.35
SMILES: COc1c(C)c2c(c(O)c1C/C=C(\C)CCC(=O)O)C(=O)OC2 [Mycophenolic acid, mycophenolic acid]
- Time to maximum serum MPA concentration ([1]; after MMF administration, ref Park, 2011): 60 to 90 min
- Clinically attainable MPA concentration ([1]; ref Margolis et al., 1999): 1 to 10 µM

SMILES: Cc1ccc(-c2cc(C(F)(F)F)nn2-c2ccc(S(N)(=O)=O)cc2)cc1 [Celecoxib, celecoxib]
- Rat paw edema after treatment [2]: significantly relieved
- Rat paw size ([2]; celecoxib 10 mg/kg oral, Time (h) 1): 0.75 cm (4×) and 0.71 cm and 0.7 cm and 0.73 cm
- Rat paw size ([2]; celecoxib 10 mg/kg oral, Time (h) 2): 0.75 cm and 0.65 cm (2×) and 0.7 cm and 0.67 cm and 0.68 cm and 0.6 cm
- Rat paw size ([2]; celecoxib 10 mg/kg oral, Time (h) 3): 0.55 cm and 0.45 cm and 0.5 cm (3×) and 0.49 cm and 0.4 cm
- Rat paw size ([2]; celecoxib 10 mg/kg oral, Time (h) 4): 0.5 cm (2×) and 0.48 cm and 0.45 cm (3×) and 0.4 cm
- Rat paw size ([2]; celecoxib 10 mg/kg oral, Time (h) 5): 0.4 cm (3×) and 0.45 cm and 0.43 cm and 0.38 cm and 0.42 cm
- Rat paw size ([2]; celecoxib 10 mg/kg oral, Time (h) 6): 0.6 cm (2×) and 0.56 cm and 0.55 cm (2×) and 0.65 cm and 0.5 cm

- pIC50 (12-LOX; read-out: IC50 12-LOX): 5.48
SMILES: O=c1c(O)c(-c2ccc(O)c(O)c2)oc2cc(O)cc(O)c12 [Quercetin]

SMILES: COc1ccc2c(c1)c(CC(=O)O)c(C)n2C(=O)c1ccc(Cl)cc1 [Indomethacin, indomethacin]
- Rat paw edema after treatment [2]: significantly relieved
- Rat paw size ([2]; indomethacin 10 mg/kg oral, Time (h) 1): 0.7 cm (4×) and 0.75 cm (3×)
- Rat paw size ([2]; indomethacin 10 mg/kg oral, Time (h) 2): 0.7 cm and 0.6 cm (3×) and 0.55 cm (2×) and 0.5 cm
- Rat paw size ([2]; indomethacin 10 mg/kg oral, Time (h) 3): 0.45 cm and 0.43 cm and 0.4 cm (2×) and 0.42 cm and 0.5 cm and 0.44 cm
- Rat paw size ([2]; indomethacin 10 mg/kg oral, Time (h) 4): 0.35 cm and 0.38 cm and 0.4 cm (3×) and 0.39 cm and 0.37 cm
- Rat paw size ([2]; indomethacin 10 mg/kg oral, Time (h) 5): 0.35 cm (2×) and 0.37 cm (3×) and 0.4 cm (2×)
- Rat paw size ([2]; indomethacin 10 mg/kg oral, Time (h) 6): 0.55 cm and 0.52 cm and 0.5 cm and 0.65 cm and 0.6 cm (2×) and 0.59 cm
